Source: patent publication US11613538B2, “Method of inhibiting or reducing a viral infection” (PTC Therapeutics, Inc., priority 2009, dated 2023)

The compounds below were run on hypoxia-induced VEGF production in HeLa cells (assay: cells). Conditions: Homo sapiens, HeLa.
Type: cell-based, human

SMILES | EC50 [nM]
CCOC(=O)N1CCc2c([nH]c3ccc(Cl)cc23)[C@@H]1c1ccc(OCC(C)(CO)CO)cc1 [Compound 1283] | < 8
CCOC(=O)N1CCc2c([nH]c3ccc(Cl)cc23)[C@@H]1c1ccc(OCC2(C)COC(C)(C)OC2)cc1 [Compound 1284] | < 8
O=C(OC1CCCC1)N1CCc2c([nH]c3ccc(Cl)cc23)[C@@H]1c1ccc(OCCCO)cc1 [Compound 1285] | < 8
O=C(OC1CCCC1)N1CCc2c([nH]c3ccc(Cl)cc23)[C@@H]1c1ccc(O)cc1 [Compound 1286] | 40 to 200
CCOC(=O)N1CCc2c([nH]c3ccc(Cl)cc23)[C@@H]1c1ccc(OCCC(O)Cn2cncn2)cc1 (some centres unmarked) [Compound 1287] | 8 to 40
Cc1ccc(OC(=O)N2CCc3c([nH]c4ccc(Cl)cc34)[C@@H]2c2ccc(OCCC(O)CN(CCO)CCO)cc2)cc1 (some centres unmarked) [Compound 1288] | 8 to 40
CC#CCOC(=O)N1CCc2c([nH]c3ccc(Cl)cc23)[C@@H]1c1ccc(OCCCCl)cc1 [Compound 1294] | < 8
CC(C)OC(=O)N1CCc2c([nH]c3ccc(Cl)cc23)[C@@H]1c1ccc(OCC[C@H](O)CO)cc1 [Compound 1295] | < 8
CC(C)OC(=O)N1CCc2c([nH]c3ccc(Cl)cc23)[C@@H]1c1ccc(OCC(C)(CO)CO)cc1 [Compound 1296] | 8 to 40
COc1ccc([C@H]2C3Nc4ccc(Cl)cc4C3CCN2C(=O)OC2CCCC2)cc1 (some centres unmarked) [Compound 1298] | < 8
Cc1ccc(OC(=O)N2CCC3c4cc(Cl)ccc4NC3[C@@H]2c2ccc(OCCC(O)CN3CCOCC3)cc2)cc1 (some centres unmarked) [Compound 1302] | 40 to 200
O[C@@H](CCOc1ccc([C@H]2c3[nH]c4ccc(Cl)cc4c3CCN2c2ncccn2)cc1)CN1CCOCC1 [Compound 1303] | < 8
O[C@@H](CCOc1ccc([C@H]2c3[nH]c4ccc(Cl)cc4c3CCN2c2ncccn2)cc1)CN1CCCCC1 [Compound 1304] | < 8
CCN(CC)C[C@@H](O)CCOc1ccc([C@H]2c3[nH]c4ccc(Cl)cc4c3CCN2c2ncccn2)cc1 [Compound 1305] | 8 to 40
CN1CCN(C[C@@H](O)CCOc2ccc([C@H]3c4[nH]c5ccc(Cl)cc5c4CCN3c3ncccn3)cc2)CC1 [Compound 1306] | 8 to 40
CN1CCN(C[C@H](O)COc2ccc([C@H]3c4[nH]c5ccc(Cl)cc5c4CCN3c3ncccn3)cc2)CC1 [Compound 1308] | < 8
CCN(CC)C[C@H](O)COc1ccc([C@H]2c3[nH]c4ccc(Cl)cc4c3CCN2c2ncccn2)cc1 [Compound 1309] | 8 to 40
O[C@H](COc1ccc([C@H]2c3[nH]c4ccc(Cl)cc4c3CCN2c2ncccn2)cc1)CN1CCCCC1 [Compound 1310] | 8 to 40
CCN(CC)C[C@@H](O)COc1ccc([C@H]2c3[nH]c4ccc(Cl)cc4c3CCN2c2ncccn2)cc1 [Compound 1311] | 40 to 200
CN1CCN(C[C@@H](O)COc2ccc([C@H]3c4[nH]c5ccc(Cl)cc5c4CCN3c3ncccn3)cc2)CC1 [Compound 1312] | 8 to 40
O[C@@H](COc1ccc([C@H]2c3[nH]c4ccc(Cl)cc4c3CCN2c2ncccn2)cc1)CN1CCCCC1 [Compound 1313] | 8 to 40
CC1(C)OC[C@H](CCOc2ccc([C@H]3c4[nH]c5ccc(Cl)cc5c4CCN3C(=O)OCC3CC3)cc2)O1 [Compound 1314] | < 8
CC1(C)OC[C@H](CCOc2ccc([C@H]3c4[nH]c5ccc(Cl)cc5c4CCN3C(=O)OCC3CCC3)cc2)O1 [Compound 1315] | < 8
CC1(C)OC[C@H](CCOc2ccc([C@H]3c4[nH]c5ccc(Cl)cc5c4CCN3C(=O)OC3CCCC3)cc2)O1 [Compound 1316] | < 8
CC1(COc2ccc([C@H]3c4[nH]c5ccc(Cl)cc5c4CCN3C(=O)OCC3CC3)cc2)COC(C)(C)OC1 [Compound 1317] | < 8

SMILES | EC50 [nM]
CC1(COc2ccc([C@H]3c4[nH]c5ccc(Cl)cc5c4CCN3C(=O)OCC3CCC3)cc2)COC(C)(C)OC1 [Compound 1318] | < 8
CC1(COc2ccc([C@H]3c4[nH]c5ccc(Cl)cc5c4CCN3C(=O)OC3CCCC3)cc2)COC(C)(C)OC1 [Compound 1319] | < 8
O=C(OC1CCCC1)N1CCc2c([nH]c3ccc(Cl)cc23)[C@@H]1c1ccc(OCC[C@H](O)CO)cc1 [Compound 1320] | < 8
CC(CO)(CO)COc1ccc([C@H]2c3[nH]c4ccc(Cl)cc4c3CCN2C(=O)OC2CCCC2)cc1 [Compound 1321] | < 8
O=C(OC1CCCC1)N1CCc2c([nH]c3ccc(Cl)cc23)[C@@H]1c1ccc(OC[C@H](O)CO)cc1 [Compound 1322] | < 8
O=C(OC1CCCC1)N1CCc2c([nH]c3ccc(Cl)cc23)[C@@H]1c1ccc(OC[C@@H](O)CO)cc1 [Compound 1323] | < 8
CCOC(=O)N1CCc2c([nH]c3ccc(Cl)cc23)[C@@H]1c1ccc(OCC(CC)(CO)CO)cc1 [Compound 1324] | < 8
CCC(CO)(CO)COc1ccc([C@H]2c3[nH]c4ccc(Cl)cc4c3CCN2C(=O)OCC(C)C)cc1 [Compound 1326] | < 8
CCC(CO)(CO)COc1ccc([C@H]2c3[nH]c4ccc(Cl)cc4c3CCN2C(=O)OC2CCCC2)cc1 [Compound 1327] | < 8
O=C(Oc1ccc(Cl)cc1)N1CCc2c([nH]c3ccc(Cl)cc23)[C@H]1c1ccc(O)cc1 [Compound 1332] | > 1000
CCOC(=O)C(=O)N1CCc2c([nH]c3ccc(Cl)cc23)C1c1ccc(OC)cc1 (centres unmarked) [Compound 1334] | 40 to 200
COc1ccc(C2c3[nH]c4ccc(Cl)cc4c3CCN2C(=O)C(=O)OC(C)C)cc1 (centres unmarked) [Compound 1338] | 8 to 40
CCCOC(=O)C(=O)N1CCc2c([nH]c3ccc(Cl)cc23)C1c1ccc(OC)cc1 (centres unmarked) [Compound 1339] | 8 to 40
CCOC(=O)N1CCc2c([nH]c3ccc(Br)cc23)C1c1ccc(OCC(O)CO)cc1 (centres unmarked) [Compound 1340] | 8 to 40
CC(C)OC(=O)N1CCc2c([nH]c3ccc(Br)cc23)C1c1ccc(OCC(O)CO)cc1 (centres unmarked) [Compound 1341] | 8 to 40
CC(C)COC(=O)N1CCc2c([nH]c3ccc(Br)cc23)C1c1ccc(OCC(O)CO)cc1 (centres unmarked) [Compound 1342] | < 8
CCOC(=O)N1CCc2c([nH]c3ccc(Br)cc23)C1c1ccc(OCC[C@H](O)CO)cc1 (some centres unmarked) [Compound 1345] | < 8
CC(C)OC(=O)N1CCc2c([nH]c3ccc(Br)cc23)C1c1ccc(OCC[C@H](O)CO)cc1 (some centres unmarked) [Compound 1346] | < 8
CC(C)COC(=O)N1CCc2c([nH]c3ccc(Br)cc23)C1c1ccc(OCC[C@H](O)CO)cc1 (some centres unmarked) [Compound 1347] | < 8
CC(C)OC(=O)N1CCc2c([nH]c3ccc(Br)cc23)C1c1ccc(OCC(C)(CO)CO)cc1 (centres unmarked) [Compound 1350] | < 8
CC(C)COC(=O)N1CCc2c([nH]c3ccc(Br)cc23)C1c1ccc(OCC(C)(CO)CO)cc1 (centres unmarked) [Compound 1351] | < 8
CCOC(=O)N1CCc2c([nH]c3ccc(Br)cc23)C1c1ccc(OCC(CC)(CO)CO)cc1 (centres unmarked) [Compound 1354] | < 8
CCC(CO)(CO)COc1ccc(C2c3[nH]c4ccc(Br)cc4c3CCN2C(=O)OC(C)C)cc1 (centres unmarked) [Compound 1355] | < 8
CCC(CO)(CO)COc1ccc(C2c3[nH]c4ccc(Br)cc4c3CCN2C(=O)OCC(C)C)cc1 (centres unmarked) [Compound 1356] | < 8
CCOC(=O)N1CCc2c([nH]c3ccc(Cl)cc23)[C@@H]1c1ccc(OCC2(CO)COCOC2)cc1 [Compound 1359] | 8 to 40
